In patent publication US4973578A, “Synthetic peptides derived from the alpha-subunit of human lycoprotein hormones” (Mayo Foundation for Medical Education and Research, priority 1988, dated 1990):
“And” between values parts separate entries of the source, which are not always exact repeats. Equal values may be shown once. “Also recorded” adds a separate entry of the source. Residues, ends and D or L forms follow the SMILES beside them.

Columns and labels:
[1] = Solubility of peptide in assay buffers; type: physicochemical
[2] = target: T1, TSH receptor on human thyroid membranes (Homo sapiens, UniProt P16473); experiment: TSH radioreceptor assay: inhibition of 125I-bTSH binding to human thyroid membrane preparations; settings: for IC50: human thyroid membrane homogenates, ± S.E., read-out: bTSH ED50 (effective dose necessary to inhibit binding of 125I-bTSH by 50%); for inhibition of 125I-bTSH binding, result in words: human thyroid membranes
T1 construct: Thyroid tissue obtained at surgery from patients with Graves' disease was prepared as described by Takahashi et al; from tissue; host or cells: human thyroid tissue from Graves' disease patients, 2000xg membrane fraction
Protocol: Thyroid tissue obtained at surgery from patients with Graves' disease was prepared as described by Takahashi et al., J. Clin. Endocrinol. Metab. 47:870 (1978), the disclosure of which is incorporated herein. Briefly, the tissue was dissected free of fibrous material, minced with scissors, and homogenized with Polytron homogenizer. The 2000×g fraction was collected by centrifugation, washed and resuspended in 40 mM Tris, 0.1% Bovine Serum Albumin (BSA) pH 7.4 at a concentration of 100 mg equivalents of wet tissue per milliliter. The preparation was stored at -70° C. until used for assay.
Highly purified bovine TSH (30 IU/mg, supplied by Dr. J. G. Pierce, UCLA) was radio-iodinated (Na^125 I, Amersham, Chicago) by a gentle lactoperoxidase procedure described by Takahashi et al., supra, then purified by Sephadex G-100 chromatography.
The membrane assay incubation mixture consisted of […] of the 2000×g membrane fraction, 0.125 ng ^125 I bTSH (approximately 20,000 cpm, 5×10^-12 M), 100 ul of 1% Triton X-100 and noted amounts of test materials in a final volume of 0.5 ml of 40 mM Tris-HCl pH 7.4 plus 0.1% BSA. Nonspecific binding was determined by addition of excess unlabeled bTSH (200 mU/ml, Sigma, St. Louis). After 2 hrs incubation at 25° C., 200 ul of 5 mg/ml bovine gamma globulin and 1 ml 30% polyethylene glycol 6000 (Baker, Phillipsburg, N.J.) in 1M NaCl was added to each tube and the tubes centrifuged at 4000 rpm for 25 minutes. The supernatants were aspirated and pellets counted in a gamma counter. Specific binding averaged 25% of total counts.
FIG. 1 reports 5×10^-12 M labeled bTSH incubated with 10 mg equivalents (wet weight) of 2000×g fraction of thyroid membranes with varying concentrations of unlabeled TSH or synthetic α-subunit peptides. Nonspecific binding was determined in the presence of excess unlabeled TSH.

[3] = tested on: TSH mediated cAMP generation in FRTL-5 cells; experiment: Inhibition of TSH mediated cAMP generation in FRTL-5 cells; type: cell-based, rat; settings: for percent inhibition of TSH mediated cAMP generation: 200 mU/L bTSH, 2 hrs 37° C.
Protocol: FRTL-5 cells were maintained in Ham's F-12 medium supplemented with 5% calf serum and a 6 hormone preparation including 10 mU/ml bTSH as described by Ambesi-Impiombato et al., Proc. Natl. Acad. Sci. U.S.A., 77:3455 (1980), the disclosure of which is incorporated herein. For all assays herein described, the cells were plated in 24 well plates and grown for 3 days at 37° C. then maintained for 5-7 days in medium supplemented with 10 ug insulin alone prior to assay.
The bioassay was a modification of those previously described by Bidey et al, J. Endocrinol., 101:269 (1984); and Kasagi et al., ACTA Endocrinol., 115:30 (1987). To duplicate culture wells were added varying concentrations of test materials (see below) in a final volume of 300 ul of NaCl free HBSS with 0.5 mM iso-butyl-methyl-xanthine (IBMX, Sigma, St. Louis). In stimulation assays, only synthetic α-subunit peptides were added to the incubation medium. For inhibition assays, the noted concentrations of synthetic α-subunit peptides were added immediately prior to the addition of 200 mU/L bTSH. The plates were incubated at 37° C. in 5% CO2 for 2 hrs then 100 ul of incubation medium was removed and diluted in 900 ul of 0.05M sodium acetate pH 6.2 and assayed for cAMP content by RIA in accordance with procedures described by Wray and Glinos, Am. J. Physiol., 234 (Cell Phisol. 3):C131(1978)); and Steiner et al., J. Biol. Chem., 247:1106 (1972). […] Basal cAMP levels were determined in the presence of HBSS and IBMX alone. In inhibition assays percent inhibition was calculated as follows: [formula]
FIG. 4 reports data obtained for TSH deprived FRTL-5 cells incubated with a fixed amount of bTSH (200 mU/l) by itself or with various concentrations of synthetic peptides. cAMP content of medium was measured after 2 hrs. incubation at 37° C. Percent inhibition of cAMP generation was calculated as noted above.

[4] = tested on: thyroid stimulating immunoglobulin (TSI) stimulated cAMP in FRTL-5 cells; experiment: TSI bioassay: inhibition of thyroid stimulating immunoglobulin activity (PEG-precipitated patient immunoglobulin) in FRTL-5 cells; type: cell-based, rat; settings: for Percent inhibition of TSI activity, mean: mean of patient samples tested
Source text: Ten patients (8 women and 2 men) with Graves' disease and high levels of TSI were identified after evaluation by FRTL-5 cell bioassay in the clinical chemistry laboratory. (FRTL-5 bioassay described below employing known TSH receptor recognition of various species hormones) Consecutive samples that had indices greater than 15 and sufficient serum remaining for further evaluation were chosen. Seven of the 10 had serum thyroxine values above the normal range and 9 of 10 had TSH levels below the euthyroid range by sensitive immunoradiometric assay [Boots-Celltech Sucrosep, Berkshire, UK, conducted as described in Klee and Hay, J. Clin. Endocrinol. Metab., 64:461 (1987)]. (FIG. 5). For comparison serum from 13 normal subjects was examined for TSI at the same serum dilution as the patient sera. (FIG. 5).
FRTL-5 cells were maintained in Ham's F-12 medium supplemented with 5% calf serum and a 6-hormone preparation (6H) as described by Ambesi-Impiombato, supra. The cells were removed from flasks enzymatically, plated at 150,000 cells per well in 24 well plates, and grown in 6H medium for 4 days. The medium was then replaced with fresh medium supplemented with insulin only (1H) for 7 days prior to assay. The bioassay was a modification of that described by Kasagi et al., supra. Briefly, immunoglobulins were precipitated from 2 ml of serum with 6 ml 20% polyethylene glycol 6000 (Baker, Phillipsburg, N.J.), centrifuged at 2800×g for 20 minutes, and then reconstituted in 2.4 ml buffer (NaCl-free Hanks balanced salt solution, NaCl-free HBSS), containing 1 mM iso-butyl-methyl-xanthine (IBMX, Sigma, St. Louis) and 1.5% BSA. After washing the cells with HBSS, 150 ul of buffer was added to the wells plus varying concentrations of synthetic α-subunit peptides followed immediately by 150 ul of the crude immunoglobulin extract. The plates were incubated for 2 hours at 37° C., 5% CO2 after which 100 ul of medium was removed and diluted in 900 ul 50 mM sodium acetate buffer, pH 6.2. cAMP content was determined by radioimmunoassay using the procedures described in Wray and Glinos, supra and Steiner et al., supra. Basal cAMP levels were determined in the absence of immunoglobulin extract and synthetic peptides for each plate. Basal and maximum levels were determined in quadruplicate; peptide effects were measured in duplicate at each concentration.
Percent increase in cAMP levels over basal was calculated as below: [formula]
Percent inhibition of TSI activity by the synthetic α-subunit peptides was calculated as follows: [formula]
cAMP levels in the presence of synthetic peptides were compared to maximum levels using student's T test for paired samples. Mean percent inhibition between different peptides were compared with student's T test for independent samples. Correlations were determined by Pearson's R.

T1 sequence (P16473 21-764): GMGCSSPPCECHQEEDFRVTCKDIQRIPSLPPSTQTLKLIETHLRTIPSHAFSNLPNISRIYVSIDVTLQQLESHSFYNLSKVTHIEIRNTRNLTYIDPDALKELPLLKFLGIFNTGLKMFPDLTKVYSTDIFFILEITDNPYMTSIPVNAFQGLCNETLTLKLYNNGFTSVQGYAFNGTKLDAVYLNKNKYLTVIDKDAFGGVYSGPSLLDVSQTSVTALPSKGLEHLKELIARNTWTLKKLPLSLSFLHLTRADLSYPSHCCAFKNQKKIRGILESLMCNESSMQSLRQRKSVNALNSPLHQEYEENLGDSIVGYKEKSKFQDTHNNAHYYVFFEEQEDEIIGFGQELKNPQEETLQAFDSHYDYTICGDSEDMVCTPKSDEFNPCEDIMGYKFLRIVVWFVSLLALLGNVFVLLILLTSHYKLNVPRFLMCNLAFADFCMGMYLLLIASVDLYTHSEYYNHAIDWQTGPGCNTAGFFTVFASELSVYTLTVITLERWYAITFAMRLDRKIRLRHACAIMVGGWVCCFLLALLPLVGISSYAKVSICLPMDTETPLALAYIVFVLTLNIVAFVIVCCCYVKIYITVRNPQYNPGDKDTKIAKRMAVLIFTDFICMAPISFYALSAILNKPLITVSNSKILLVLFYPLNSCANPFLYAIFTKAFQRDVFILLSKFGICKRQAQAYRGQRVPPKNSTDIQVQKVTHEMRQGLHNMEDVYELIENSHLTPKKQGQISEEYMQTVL

**Q.** For CC[C@H](C)[C@H](NC(=O)[C@@H]1CCCN1C(=O)[C@H](C)NC(=O)CNC(=O)[C@@H]1CCCN1)C(=O)N[C@@H](CC(C)C)C(=O)N[C@@H](CCC(N)=O)C(=O)N[C@@H](CS)C(=O)N[C@@H](CCSC)C(=O)NCC(=O)N[C@@H](CS)C(=O)N[C@@H](CS)C(=O)N[C@@H](Cc1ccccc1)C(=O)N[C@@H](CO)C(=O)N[C@@H](CCCNC(=N)N)C(N)=O [α21-35, Pro--Gly--Ala--Pro--Ile--Leu--Gln--Cys--Met--Gly--Cys--Cys--Phe--Ser--Arg] (H-PGAPILQCMGCCFSR-NH2), which “behaviour in cell binding assay buffer” value ([1]; FRTL-5 cell binding assay buffer) is on record?
**A.** precipitated in the assay buffer

**Q.** What about the “behaviour in soluble membrane assay” value ([1]; soluble membrane assay (FIG. 1)) of the same compound?
**A.** remained in solution

**Q.** And the “displacement of 125I-bTSH label” value ([2]; at concentrations greater than 1×10^-5 m, FIG. 1)?
**A.** more than 80%

**Q.** And the IC50 [2]?
**A.** 39.9 ± 0.4 µM

**Q.** What about the “inhibition of 125I-bTSH binding, result in words” value ([2]; FIG. 1) of the same compound?
**A.** dose dependent inhibition

**Q.** What about the “percent inhibition of TSH mediated cAMP generation” value ([3]; peptide 66.7 ug/ml) of the same compound?
**A.** 33.88%

**Q.** What about the “percent inhibition of TSH mediated cAMP generation” value ([3]; peptide 133.3 ug/ml) of the same compound?
**A.** 52.50%

**Q.** For C[C@H](N)C(=O)N[C@@H](CS)C(=O)N[C@@H](Cc1c[nH]cn1)C(=O)N[C@@H](CS)C(=O)N[C@@H](CO)C(=O)N[C@H](C(=O)N[C@@H](CS)C(=O)N[C@@H](Cc1ccc(O)cc1)C(=O)N[C@@H](Cc1ccc(O)cc1)C(=O)N[C@@H](Cc1c[nH]cn1)C(=O)N[C@@H](CCCCN)C(=O)N[C@@H](CO)C(=O)O)[C@@H](C)O [α81-92, Ala--Cys--His--Cys--Ser--Thr--Cys--Tyr--Tyr--His--Lys--Ser(OH)] (H-ACHCSTCYYHKS-OH), which IC50 [2] is on record?
**A.** 175 ± 3.8 µM

**Q.** And the “inhibition of 125I-bTSH binding, result in words” value ([2]; FIG. 1)?
**A.** dose dependent inhibition; also recorded: considerably less potent

**Q.** And the “inhibition of cAMP generated by patient immunoglobulin, in words” value ([4]; FIG. 7 and Table 6)?
**A.** did not significantly inhibit

**Q.** And the “Percent inhibition of TSI activity” value ([4]; Pt. sample D, peptide 66.7 ug/ml)?
**A.** -18.5%

**Q.** And the “Percent inhibition of TSI activity” value ([4]; Pt. sample D, peptide 133 ug/ml)?
**A.** -7.8%

**Q.** And the “Percent inhibition of TSI activity” value ([4]; Pt. sample E, peptide 66.7 ug/ml)?
**A.** 29.7%

**Q.** And the “Percent inhibition of TSI activity” value ([4]; Pt. sample E, peptide 133 ug/ml)?
**A.** 33.6%

**Q.** And the “Percent inhibition of TSI activity” value ([4]; Pt. sample F, peptide 66.7 ug/ml)?
**A.** 9.6%

**Q.** What about the “Percent inhibition of TSI activity” value ([4]; Pt. sample F, peptide 133 ug/ml) of the same compound?
**A.** -5.1%

**Q.** What about the “Percent inhibition of TSI activity” value ([4]; Pt. sample G, peptide 66.7 ug/ml) of the same compound?
**A.** 19.0%

**Q.** What about the “Percent inhibition of TSI activity” value ([4]; Pt. sample G, peptide 133 ug/ml) of the same compound?
**A.** 14.5%

**Q.** What about the “Percent inhibition of TSI activity” value ([4]; Pt. sample H, peptide 66.7 ug/ml) of the same compound?
**A.** 0.6%

**Q.** What about the “Percent inhibition of TSI activity” value ([4]; Pt. sample H, peptide 133 ug/ml) of the same compound?
**A.** -11.4%

**Q.** And the “Percent inhibition of TSI activity” value ([4]; Pt. sample I, peptide 66.7 ug/ml)?
**A.** -13.3%

**Q.** And the “Percent inhibition of TSI activity” value ([4]; Pt. sample I, peptide 133 ug/ml)?
**A.** -17.0%

**Q.** What about the “Percent inhibition of TSI activity” value ([4]; Pt. sample J, peptide 66.7 ug/ml) of the same compound?
**A.** -2.0%

**Q.** And the “Percent inhibition of TSI activity” value ([4]; Pt. sample J, peptide 133 ug/ml)?
**A.** -7.7%

**Q.** What about the “Percent inhibition of TSI activity, mean” value ([4]; peptide 66.7 ug/ml) of the same compound?
**A.** 3.6%

**Q.** What about the “Percent inhibition of TSI activity, mean” value ([4]; peptide 133 ug/ml) of the same compound?
**A.** -0.1±6.2% and -0.1%

**Q.** What about the “patient Ig samples with statistically significant inhibition of cAMP” value ([4]; peptide 133 ug/ml) of the same compound?
**A.** none of the 7

**Q.** What about the “percent inhibition of TSH mediated cAMP generation” value ([3]; peptide 66.7 ug/ml) of the same compound?
**A.** 18.03%

**Q.** What about the “percent inhibition of TSH mediated cAMP generation” value ([3]; peptide 133.3 ug/ml) of the same compound?
**A.** 20.83%

**Q.** And the “inhibition of TSH mediated cAMP generation, in words” value ([3]; same concentrations as the active peptides)?
**A.** did not significantly inhibit TSH stimulation of cAMP production; also recorded: little or no ability to inhibit TSH mediated cAMP generation
